Results taken from ChEMBL document CHEMBL2401683, “Discovery of novel andrographolide derivatives as cytotoxic agents” (2013).
Activity calls are given as the source filed them. The calls are words filed in the database; no cut-off is given here.

Assays:
DU-145 = assay: Growth inhibition of human DU145 cells after 72 hrs by SRB assay; type: functional; conditions: DU-145, 72 h
A549 = assay: Growth inhibition of human A549 cells after 72 hrs by SRB assay; type: functional; conditions: A549, 72 h
KB = assay: Growth inhibition of human KB cells after 72 hrs by SRB assay; type: functional
[1] = Growth inhibition of human KBVIN cells after 72 hrs by SRB assay; type: functional
PC-3 [2] = assay: Disruption of microtubule dynamics in human PC3 cells at 30 to 60 uM after 24 hrs by DAPI staining-based confocal microscopic analysis; type: functional, cell-based
PC-3 [3] = assay: Induction of metaphase cell accumulation in human PC3 cells at 30 to 60 uM after 24 hrs by DAPI staining-based confocal microscopic analysis; type: functional

GI50 (DU-145) | GI50 (A549) | GI50 (KB) | SMILES | GI50 [1] | Activity (PC-3 [2]) | Activity (PC-3 [3])
2.27 µM | 1.46 µM | 2.55 µM | C=C1CC[C@@H]2[C@](C)(COC(=O)C3CCN(C)CC3)[C@H](OC(=O)C3CCN(C)CC3)CC[C@@]2(C)[C@@H]1/C=C/C1=CCOC1=O | 3 µM | Active | inactive
30.3 µM | > 30 µM | > 30 µM | C=C1CC[C@@H]2[C@](C)(COC(=O)CCN3CCOCC3)[C@H](O)CC[C@@]2(C)[C@@H]1/C=C/C1=CCOC1=O | 30 µM |  | 
25.3 µM | 32 µM | > 30 µM | C=C1CC[C@@H]2[C@](C)(COC(=O)CCN(C)C)[C@H](OC(=O)CCN(C)C)CC[C@@]2(C)[C@@H]1/C=C/C1=CCOC1=O | 31.7 µM |  | 
18.8 µM | 18.8 µM | 20.1 µM | C=C1CC[C@@H]2[C@](C)(COC(=O)C3CCCN3C(=O)OC(C)(C)C)[C@H](O)CC[C@@]2(C)[C@@H]1/C=C/C1=CCOC1=O (stereo not given in full) | 17.9 µM |  | 
11.8 µM | 10.2 µM | 11.7 µM | C=C1CC[C@@H]2[C@](C)(COC(=O)CCCCC3CCSS3)[C@H](OC(=O)CCCCC3CCSS3)CC[C@@]2(C)[C@@H]1/C=C/C1=CCOC1=O (stereo not given in full) | 12.9 µM |  | 
> 30 µM | > 30 µM | > 30 µM | C=C1CC[C@@H]2[C@](C)(COC(=O)CCN3CCOCC3)[C@H](OC(=O)CCN3CCOCC3)CC[C@@]2(C)[C@@H]1/C=C/C1=CCOC1=O | > 30 µM |  | 
> 30 µM | 33 µM | > 30 µM | C=C1CC[C@@H]2[C@]3(C)CO[C@@H](c4ccc(N(C)C)cc4)O[C@@H]3CC[C@@]2(C)[C@@H]1/C=C/C1=CCOC1=O | > 30 µM |  | 
32.9 µM | 34 µM | 36.4 µM | C=C1CC[C@@H]2[C@]3(C)CO[C@@H](c4ccco4)O[C@@H]3CC[C@@]2(C)[C@@H]1/C=C/C1=CCOC1=O | 32.7 µM |  | 
> 30 µM | > 30 µM | > 30 µM | C=C1CC[C@@H]2[C@](C)(COC(=O)c3cccnc3)[C@H](OC(=O)c3cccnc3)CC[C@@]2(C)[C@@H]1/C=C/C1=CCOC1=O | > 30 µM |  | 
17.2 µM | 16.9 µM | 23.4 µM | C=C1CC[C@@H]2[C@]3(C)CO[C@@H](c4ccc(C(F)(F)F)cc4)O[C@@H]3CC[C@@]2(C)[C@@H]1/C=C/C1=CCOC1=O | 18.3 µM |  | 
16 µM | 13.4 µM | 13.2 µM | C=C1CC[C@@H]2[C@](C)(CO)[C@H](O)CC[C@@]2(C)[C@@H]1C/C=C1/C(=O)OC[C@H]1O [ANDROGRAPHOLIDE] | 13.8 µM |  | Active
> 30 µM | > 30 µM | > 30 µM | C=C1CC[C@@H]2[C@](C)(COC(=O)CCCCC3CCSS3)[C@H](O)CC[C@@]2(C)[C@@H]1/C=C/C1=CCOC1=O (stereo not given in full) | > 30 µM |  | 
> 30 µM | > 30 µM | > 30 µM | C=C1CC[C@@H]2[C@](C)(COC(=O)CN(C)C)[C@H](OC(=O)CN(C)C)CC[C@@]2(C)[C@@H]1/C=C/C1=CCOC1=O | > 30 µM |  | 
8.63 µM | 4.87 µM | 8.24 µM | C=C1CC[C@@H]2[C@](C)(COC(=O)c3cnccn3)[C@H](OC(=O)c3cnccn3)CC[C@@]2(C)[C@@H]1/C=C/C1=CCOC1=O | 9.19 µM |  | 
19.1 µM | 22.8 µM | 23.7 µM | C=C1CC[C@@H]2[C@]3(C)CO[C@@H](c4ccc(O)cc4)O[C@@H]3CC[C@@]2(C)[C@@H]1/C=C/C1=CCOC1=O | 22.6 µM |  | 
> 30 µM | 30.8 µM | > 30 µM | C=C1CC[C@@H]2[C@]3(C)CO[C@@H](c4ccc([N+](=O)[O-])cc4)O[C@@H]3CC[C@@]2(C)[C@@H]1/C=C/C1=CCOC1=O | > 30 µM |  | 
11.1 µM | 10.2 µM | 12.5 µM | C=C1CC[C@@H]2[C@](C)(COC(=O)C3CCCN3C(=O)OC(C)(C)C)[C@H](OC(=O)C3CCCN3C(=O)OC(C)(C)C)CC[C@@]2(C)[C@@H]1/C=C/C1=CCOC1=O (stereo not given in full) | 11.1 µM |  | 
32.1 µM | 26.9 µM | 32.9 µM | C=C1CC[C@@H]2[C@]3(C)CO[C@@H](c4ccc(OC)cc4)O[C@@H]3CC[C@@]2(C)[C@@H]1/C=C/C1=CCOC1=O | > 30 µM |  | 
